The values below come from article PMC6152416, “Pharmacological and Toxicological Screening of Novel Benzimidazole-Morpholine Derivatives as Dual-Acting Inhibitors” (Molecules : A Journal of Synthetic Chemistry and Natural …, 2017).

Like-named read-outs stand apart in the source and are kept apart here.

The target in one series is T1, COX-2 (Homo sapiens, UniProt P35354).
T1 construct: purchased BioVision (Milpitas, CA, USA) K547-100
T1 sequence (P35354 18-604): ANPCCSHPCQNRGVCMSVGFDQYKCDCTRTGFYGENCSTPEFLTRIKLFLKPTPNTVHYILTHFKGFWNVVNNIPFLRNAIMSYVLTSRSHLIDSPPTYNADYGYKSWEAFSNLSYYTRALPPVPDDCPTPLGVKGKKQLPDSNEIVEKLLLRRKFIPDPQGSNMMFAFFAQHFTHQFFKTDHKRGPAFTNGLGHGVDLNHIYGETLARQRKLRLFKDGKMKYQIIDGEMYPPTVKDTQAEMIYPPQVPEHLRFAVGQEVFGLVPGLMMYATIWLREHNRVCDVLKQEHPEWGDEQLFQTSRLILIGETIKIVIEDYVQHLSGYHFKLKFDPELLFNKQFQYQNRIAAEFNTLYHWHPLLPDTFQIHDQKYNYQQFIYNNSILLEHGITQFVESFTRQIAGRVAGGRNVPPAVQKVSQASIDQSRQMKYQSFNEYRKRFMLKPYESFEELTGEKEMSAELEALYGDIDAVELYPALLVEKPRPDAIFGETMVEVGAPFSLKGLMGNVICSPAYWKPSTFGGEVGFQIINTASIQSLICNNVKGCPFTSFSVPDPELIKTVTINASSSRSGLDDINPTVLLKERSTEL
As to the kind of experiment: Fluorimetric COX-2 inhibition screening kit (BioVision). Type of series: biochemical. The settings on record: for COX-2 inhibition at the initial concentrations: 10^−3 M and 10^−4 M; for inhibition at 10 µM: 10^−5 M; for inhibition at 1 µM: read-out: COX 2 Inhibition %; for inhibition at 0.1 µM: 10^−7 M; for inhibition at 0.01 µM: 10^−8 M; for inhibition at 0.001 µM: 10^−9 M. The procedure:
Inhibitory potency of the compounds on COX-1 and COX-2 enzymes was determined by using fluorimetric COX-1 and COX-2 inhibition screening kits from BioVision (Milpitas, CA, USA). The experimental protocol as described in the guides provided by the supplier was followed. All of the pipetting were performed using a robotized system to increase speed, accuracy and precision. Fluorescence intensities of the samples were kinetically measured at 25 °C for 5–10 min by monitoring emissions at 587 nm after excitation at 535 nm. Two appropriate points (T1 and T2) in the linear range of the plot were chosen and the corresponding fluorescence values (RFU1 and RFU2) were obtained. The slope for all samples including Enzyme Control (EC) was calculated by dividing the net ΔRFU (RFU2 − RFU1) values by the time ΔT (T2 − T1). Percentage of relative inhibition was calculated by using the following equation:% Relative inhibition = (Slope of EC − Slope of S/Slope of EC) × 100 where S is the term representing the tested compound [51, 52]. […] The IC50 values were calculated using the plots of the enzyme activity against concentrations by applying regression analyses.

A further series deals with AChE (Homo sapiens, UniProt P22303). The series is classed as biochemical. As for the experimental part:
Inhibition potency of the test compounds against AChE was determined using Ellman’s method. Enzyme solutions were prepared in gelatin solution (1%, w/v), at the concentration of 2.5 units/mL. […] AChE solution (20 µL/well) and test solution (20 µL/well) were added to phosphate buffer solution (140 µL/well, pH 8.0 ± 0.1), and incubated at 25 °C for 5 min. […] The production of the yellow anion was recorded by multimode microplate reader for 10 min at 412 nm. As a control, an identical solution of the enzyme without the inhibitor was processed. The control and the inhibitor readings were corrected with blank-readings. All processes were assayed in four independent determinations.

Series [1] can be described thus: Ames MPF genotoxicity assay. Type of series: cell-based, Salmonella typhimurium. To be noted: Salmonella typhimurium; TA100, with/without S9, each concentration level; read-out: fold inductions over baseline. As for the experimental part: The genotoxicity of selected compounds (2b, 2j, 2m) was determined by Ames assay using Ames MPF 98/100 mutagenicity assay sample kit (Xenometrix AG, Allschwil, Switzerland) as previously described elsewhere. Salmonella typhimurium strains, TA98 (frameshift mutations) and TA100 (base-pair substitutions) were used in the assay. The concentration of the compounds was between 16 and 5000 μg/mL, in accordance with the guideline. Compounds were prepared in six different concentrations (5.0, 2.5, 1.25, 0.625, 0.3125, 0.156 mg/mL) in DMSO. Mutagenic potential was determined in the absence or presence of Aroclor™-1254 induced male Sprague–Dawley rat liver microsomal enzyme (S9) mix (Xenometrix AG). Positive controls without S9 mix were 2-nitrofluorene (2.0 μg/mL) and 4-nitroquinoline N-oxide (0.1 μg/mL), whereas 1.0 μg/mL and 2.5 μg/mL of 2-aminoanthracene solutions were used as positive controls with S9 against TA98 and TA100, respectively. Solvent control was prepared with 4% DMSO. The end of an experiment was determined by the change of the indicator medium colour to yellow, which was originating from the decrease of pH due to revertant bacteria. Yellow wells were counted as positive, and compared with the negative control. Fold induction over the negative control and fold induction over the baseline were calculated (Fold induction over the negative control is accepted as the ratio of the mean number of positive wells for the dose concentration divided by the mean number of positive wells for the zero dose (negative) control. Fold induction over the baseline is accepted as the ratio of the mean number of positive wells for the dose concentration divided by zero dose baseline. The zero-dose baseline is obtained by adding one standard deviation to the mean number of positive wells of the zero dose control. If the baseline is less than 1, the value is set to 1 for calculation).
Mutagenicity was determined according to the criteria reported previously. For a baseline value of ≤3, significant increases between 2 and 3-fold of the baseline were classified as weak mutagen, and increases ≥3-fold of the baseline were classified as mutagen. […] As a rule, at least two adjacent doses with significant increases or a significant increase at the highest dose level should be observed for a mutagenic compound. All of the doses were compared according to Student’s t-test at p < 0.05 for statistical significance.

Chain of AChE (P22303 32-614): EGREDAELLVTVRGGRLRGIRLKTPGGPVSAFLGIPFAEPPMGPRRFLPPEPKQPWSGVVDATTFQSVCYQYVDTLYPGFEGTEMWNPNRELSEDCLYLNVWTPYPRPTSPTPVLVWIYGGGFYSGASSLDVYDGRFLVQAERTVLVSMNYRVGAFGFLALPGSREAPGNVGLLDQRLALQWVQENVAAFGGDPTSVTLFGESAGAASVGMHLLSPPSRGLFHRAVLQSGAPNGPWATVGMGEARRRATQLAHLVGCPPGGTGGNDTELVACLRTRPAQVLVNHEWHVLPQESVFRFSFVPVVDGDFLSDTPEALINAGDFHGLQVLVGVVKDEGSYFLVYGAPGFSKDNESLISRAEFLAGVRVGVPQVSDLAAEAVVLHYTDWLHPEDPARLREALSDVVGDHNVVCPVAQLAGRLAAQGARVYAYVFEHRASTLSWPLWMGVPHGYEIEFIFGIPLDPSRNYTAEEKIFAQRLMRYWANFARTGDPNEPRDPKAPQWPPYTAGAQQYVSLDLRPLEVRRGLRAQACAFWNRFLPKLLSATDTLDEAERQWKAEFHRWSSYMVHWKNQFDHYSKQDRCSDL

As to `CC(C)c1ccc(-c2nc3ccccc3n2CCN2CCOCC2)cc1` [Compound 2e, 2-(4-Isopropylphenyl)-1-[2-(morpholin-4-yl)ethyl]-1H-benzimidazole], the figures for the “COX-2 Inhibition (%)” value at COX-2 (10^-3 M) and at COX-2 (10^-4 M) were 14.26% and 22.61%, respectively. Moreover, the “AChE Inhibition (%)” value on AChE (10^-3 M) and at AChE (10^-4 M) was 17.51% throughout.
Take `CCOc1ccc(-c2nc3ccccc3n2CCN2CCOCC2)cc1` [Compound 2j, 2-(4-Ethoxyphenyl)-1-[2-(morpholin-4-yl)ethyl]-1H-benzimidazole]: on COX-2, the half-inhibitory concentration (IC50) stood at 13.1 µM, the “COX-2 inhibition at the initial concentrations” value is given as “more than 50%”, the inhibition at 10 µM is 52.5 ± 1.35% and the inhibition at 0.1 µM was 34 ± 1.06%. Besides, at COX-2, the inhibition at 0.01 µM amounted to 26.9 ± 0.86% and the inhibition at 0.001 µM worked out at 20.5 ± 0.76%. The “COX-2 Inhibition (%)” value on COX-2 (10^-3 M) worked out at 80.66%. Besides, the “COX-2 Inhibition (%)” value on COX-2 (10^-4 M) came out at 79.23%. On COX-2 (10^−6 M), the inhibition at 1 µM is 43.4 ± 1.27%. In addition, at AChE (10^-3 M), the “AChE Inhibition (%)” value is 7.20%. The “AChE Inhibition (%)” value on AChE (10^-4 M) is reported as 7.20%.
As for `Clc1ccc(-c2nc3ccccc3n2CCN2CCOCC2)cc1` [Compound 2c, 2-(4-Chlorophenyl)-1-[2-(morpholin-4-yl)ethyl]-1H-benzimidazole], the “COX-2 Inhibition (%)” value is reported as 17.85% on COX-2 (10^-3 M) and 20.99% at COX-2 (10^-4 M). Also, the “AChE Inhibition (%)” value on AChE (10^-3 M) and at AChE (10^-4 M) was 5.48% throughout.
As to `COc1ccc(-c2nc3ccccc3n2CCN2CCOCC2)cc1` [Compound 2b, 2-(4-Methoxyphenyl)-1-[2-(morpholin-4-yl)ethyl]-1H-benzimidazole], on COX-2, the IC50 was 8.37 µM, the “COX-2 inhibition at the initial concentrations” value was “more than 50%”, the inhibition at 10 µM was found to be 57.9 ± 1.28% and the inhibition at 0.1 µM is 38.1 ± 0.97%. On COX-2, this compound displayed an inhibition at 0.01 µM of 27.4 ± 0.87% and an inhibition at 0.001 µM of 21.4 ± 0.74%. In addition, the “COX-2 Inhibition (%)” value at COX-2 (10^-3 M) was 79.41%. For the same compound, the “COX-2 Inhibition (%)” value on COX-2 (10^-4 M) was determined as 84.23%. The inhibition at 1 µM on COX-2 (10^−6 M) came to 43.7 ± 1.12%. Further, the “AChE Inhibition (%)” value on AChE (10^-3 M) came out at 5.19%. Besides, the “AChE Inhibition (%)” value on AChE (10^-4 M) came out at 5.19%. Besides, the fold induction in series [1] is less than 1.5.
For the compound `FC(F)(F)Oc1ccc(-c2nc3ccccc3n2CCN2CCOCC2)cc1` [Compound 2m, 2-(4-Trifluoromethoxyphenyl)-1-[2-(morpholin-4-yl)ethyl]-1H-benzimidazole], on COX-2, the IC50 turned out to be 22.7 µM, the “COX-2 inhibition at the initial concentrations” value is recorded as “more than 50%”, 10 µM produced 46.1 ± 1.13% inhibition and testing at 0.1 µM gave an inhibition of 34.5 ± 0.97%. Also, at COX-2, the inhibition at 0.01 µM came to 28.7 ± 0.83%, at 0.001 µM the inhibition was 22.3 ± 0.52% and the inhibition at 1 µM was found to be 41.2 ± 1.05%. At COX-2 (10^-3 M), the “COX-2 Inhibition (%)” value is recorded as 64.22%. The “COX-2 Inhibition (%)” value on COX-2 (10^-4 M) was determined as 59.67%. In addition, the “AChE Inhibition (%)” value on AChE (10^-3 M) is on record as 32.90%. Moreover, the “AChE Inhibition (%)” value on AChE (10^-4 M) is recorded as 32.90%. Besides, the fold induction in series [1] is less than 1.5.
